# Measured values reported in US20090012156A1, “Composition comprising polyphenol” (Conopco, Inc. d/b/a Unilever, priority 2007, published 2009).
# Tested on: 2nd order mesenteric artery side branches of Spontaneously Hypertensive Rats (SHR)
# Experiment: Reactivity of isolated arteries: dilator effect during contraction induced by 40 mmol/L K+
# Set-up: species or system rat
# Protocol: Segments of 2nd order mesenteric artery side branches were isolated from 14 weeks old male Spontaneously Hypertensive Rats (SHR). Two stainless-steel wires (diameter 40 μm) were inserted in the lumen of the arterial segments, which were then mounted in organ chambers between an isometric force transducer and a displacement device (Danish Myotechnology by J. P. Trading, Denmark). The organ chambers were filled with Krebs-Ringer bicarbonate solution which was maintained at 37° C. and continuously aerated with 95% O2 and 5% CO2. Before the actual experiments started, arterial segments were stretched to their individual optimal lumen diameter for mechanical performance, i.e. the diameter at which maximal contractile responses to noradrenaline (10 μmol/L) were obtained. In each experiment four second order mesenteric resistance arterial segments from one animal were mounted in individual organ chambers and studied in parallel. […]
# For the analysis of the acute effects of the mixtures on K+-induced contraction, increasing concentrations of the mixtures (0.1-100 umol/L) were administered on top of the stable contractions and were left in contact with the arterial segments for 5-7 min to make sure that either no effect or a stable effect was reached. […] In this way, the effects of different exposure times to the mixtures (7, 30 and 90 min) on K+-induced contraction, could be evaluated. […]
# Active wall tension (AWT) was calculated by subtracting the resting wall tension.
# All contractile responses (AWT in the presence of stimuli, solvent and mixes of ingredients) were next expressed as a percentage of the contractile response (AWT) to 10 uM noradrenaline at the end of the normalisation period, i.e. before exposure of the arterial segments to solvent or mixes of ingredients.
# Effects of increasing concentrations of the solvent and of the mixes (0.1 to 100 umol/L) during contractile responses to 40 mmol/L K+, were calculated as % change of the level of pre-contraction. […]
smiles,measurement,setting,value
"COc1cc(-c2oc3cc(O)cc(O)c3c(=O)c2O)ccc1O [isorhamnetin, 3′methoxy-3,4,5,7-tetrahydroxyflavone]",EC50,"Rattus norvegicus, isolated SHR mesenteric resistance arteries pre-contracted with 40 mmol/L K+, effect worked out by comparing mixtures (Plackett-Burman design), corrected for solvent, read-out: EC50 of dilation of the arteries",3.1 µM
same,maximum dilatation,"at 100 micromolar of isorhamnetin, isolated SHR mesenteric arteries pre-contracted with 40 mmol/L K+",94%
same,influence on the dilation of the arteries,"at a low concentration, isolated SHR mesenteric arteries, K+-induced contraction",significant influence on the dilation of the arteries
